# Results taken from US6525001B1, “Substituted pyrimidine and pyridine herbicides” (Mid-American Commercialization Corporation, priority 1997, dated 2003).
# Experiments:
# Experiment in all cases: Test E pre-/postemergence/post directed
# Type in all cases: in vivo
# [1] = tested on: bermudagrass (Cynodon dactylon); details: PREEMERGENCE
# Text: (§1) Seeds, tubers, or plant parts of alexandergrass (Brachiaria plantaginea), annual bluegrass (Poa annua), arrowleaf sida (Sida rhombifolia), barnyardgrass (Echinochloa crus-galli), bermudagrass (Cynodon dactylon), citrus (Citrus sinensis), common chickweed (Stellaria media), common purslane (Portulaca oleracea), common ragweed (Ambrosia elatior), common groundsel (Senecio vulgaris), dallisgrass (Paspalum dilatatum), goosegrass (Eleusine indica), green foxtail (Setaria viridis), guineagrass (Panicum maximum), itchgrass (Rottboellia exaltata), johnson grass (Sorghum halepense), kochia (Kochia scoparia), large crabgrass (Digitaria sanguinalis), leafy spurge (Euphorbia esula), pitted morningglory (Ipomoea lacunosa), purple nutsedge (Cyperus rotundus), quackgrass (Agropyron repens), Russian thistle (Salsola kali), sandbur (Cenchrus echinatus), sourgrass (Trichachne insularis), Spanishneedles (Bidens bipinnata), sugarcane (Saccharum officinarum), surinam grass (Brachiaria decumbens) and tall mallow (Malva sylvestris) were planted into greenhouse pots of flats containing greenhouse planting medium. Plant species were grown grown in separate pots or individual compartments. Preemergence applications were made within one day of planting the seed or plant part. Postemergence applications were applied when the plants were in the two to four leaf stage (three to twenty cm).
# (§2) Test chemicals were formulated in a non-phytotoxic solvent mixture which included a surfactant and applied preemergence to the soil surface, postemergence to the plants or as a post directed spray to plants and soil at the base of the target species. Untreated control plants and treated plants were placed in the greenhouse and visually evaluated for injury 13 to 21 days after herbicide application. Plant response ratings, summarized in Table E, are based on a 0 to 100 scale where 0 is no injury and 100 is complete control. A dash (−) response means no test result.
# [2] = tested on: johnson grass (Sorghum halepense); details: PREEMERGENCE
# Text: as §1, §2
# [3] = tested on: surinam grass (Brachiaria decumbens); details: PREEMERGENCE
# Text: as §1, §2
# [4] = tested on: Spanishneedles (Bidens bipinnata); details: PREEMERGENCE
# Text: as §1, §2
# [5] = tested on: alexandergrass (Brachiaria plantaginea); details: PREEMERGENCE
# Text: as §1, §2
# [6] = tested on: itchgrass (Rottboellia exaltata); details: PREEMERGENCE
# Text: as §1, §2
# [7] = tested on: large crabgrass (Digitaria sanguinalis); details: PREEMERGENCE
# Text: as §1, §2
# [8] = tested on: common ragweed (Ambrosia elatior); details: PREEMERGENCE
# Text: as §1, §2
# [9] = tested on: sandbur (Cenchrus echinatus); details: PREEMERGENCE
# Text: as §1, §2
# [10] = tested on: pitted morningglory (Ipomoea lacunosa); details: PREEMERGENCE
# Text: as §1, §2
# [11] = tested on: common groundsel (Senecio vulgaris); details: PREEMERGENCE
# Text: as §1, §2
# [12] = tested on: common purslane (Portulaca oleracea); set-up: key: 0 is no effect; 100 is complete control; details: PREEMERGENCE
# Procedure, shortened: (§3)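 Greenhouse pots; compound in non-phytotoxic solvent with surfactant, sprayed preemergence within one day of planting, postemergence at two to four leaf stage (three to twenty cm), or post directed to plant base and soil. Visual injury rated 13 to 21 days after application, 0 (none) to 100 (complete control).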
# [13] = tested on: bermudagrass (Cynodon dactylon); set-up: key: 0 is no effect; 100 is complete control; details: PREEMERGENCE, Rate 250 g/ha
# Procedure, shortened: as §3
# [14] = tested on: surinam grass (Brachiaria decumbens); set-up: key: 0 is no effect; 100 is complete control; details: PREEMERGENCE, Rate 250 g/ha
# Procedure, shortened: as §3
# [15] = tested on: large crabgrass (Digitaria sanguinalis); set-up: key: 0 is no effect; 100 is complete control; details: PREEMERGENCE, Rate 250 g/ha
# Procedure, shortened: as §3
# [16] = tested on: goosegrass (Eleusine indica); set-up: key: 0 is no effect; 100 is complete control; details: PREEMERGENCE
# Procedure, shortened: as §3
# [17] = tested on: common ragweed (Ambrosia elatior); set-up: key: 0 is no effect; 100 is complete control; details: PREEMERGENCE
# Procedure, shortened: as §3
smiles,measurement,setting,value
Cc1cnc(-n2cnc(C(F)(F)F)n2)nc1C(=O)c1cccc(C(F)(F)F)c1 [Compound 67],"Plant response rating, Bermudagrass",[1]; Rate 32 g/ha,70
same,"Plant response rating, Bermudagrass",[1]; Rate 64 g/ha,90
same,"Plant response rating, Bermudagrass",[1]; Rate 125 g/ha,90
same,"Plant response rating, Johnsongrass",[2]; Rate 32 g/ha,35
same,"Plant response rating, Johnsongrass",[2]; Rate 64 g/ha,35
same,"Plant response rating, Johnsongrass",[2]; Rate 125 g/ha,50
same,"Plant response rating, Johnsongrass",[2]; Rate 250 g/ha,80
same,"Plant response rating, Surinam grass",[3]; Rate 32 g/ha,35
same,"Plant response rating, Surinam grass",[3]; Rate 64 g/ha,75
same,"Plant response rating, Surinam grass",[3]; Rate 125 g/ha,75
same,"Plant response rating, Spanishneedles",[4]; Rate 125 g/ha,50
same,"Plant response rating, Spanishneedles",[4]; Rate 250 g/ha,50
same,"Plant response rating, Alexandergrass",[5]; Rate 32 g/ha,25
same,"Plant response rating, Alexandergrass",[5]; Rate 64 g/ha,40
same,"Plant response rating, Alexandergrass",[5]; Rate 125 g/ha,70
same,"Plant response rating, Alexandergrass",[5]; Rate 250 g/ha,95
same,"Plant response rating, Itchgrass",[6]; Rate 32 g/ha,40
same,"Plant response rating, Itchgrass",[6]; Rate 64 g/ha,40
same,"Plant response rating, Itchgrass",[6]; Rate 125 g/ha,65
same,"Plant response rating, Itchgrass",[6]; Rate 250 g/ha,80
same,"Plant response rating, Large crabgrass",[7]; Rate 32 g/ha,90
same,"Plant response rating, Large crabgrass",[7]; Rate 64 g/ha,95
same,"Plant response rating, Large crabgrass",[7]; Rate 125 g/ha,98
same,"Plant response rating, Com. ragweed",[8]; Rate 32 g/ha,90
same,"Plant response rating, Com. ragweed",[8]; Rate 64 g/ha,95
same,"Plant response rating, Sandbur",[9]; Rate 32 g/ha,60
same,"Plant response rating, Sandbur",[9]; Rate 64 g/ha,60
same,"Plant response rating, Sandbur",[9]; Rate 125 g/ha,65
same,"Plant response rating, Sandbur",[9]; Rate 250 g/ha,75
same,"Plant response rating, P. morninglory",[10]; Rate 32 g/ha,60
same,"Plant response rating, P. morninglory",[10]; Rate 64 g/ha,75
same,"Plant response rating, P. morninglory",[10]; Rate 125 g/ha,90
same,"Plant response rating, P. morninglory",[10]; Rate 250 g/ha,90
same,"Plant response rating, Com. groundsel",[11]; Rate 64 g/ha,50
same,"Plant response rating, Com. groundsel",[11]; Rate 125 g/ha,95
same,"Plant response rating, Com. purslane",[12]; Rate 32 g/ha,80
same,"Plant response rating, Com. purslane",[12]; Rate 64 g/ha,100
same,"Plant response rating, Com. purslane",[12]; Rate 125 g/ha,100
same,"Plant response rating, Com. purslane",[12]; Rate 250 g/ha,100
same,"Plant response rating, Bermudagrass",[13],100
same,"Plant response rating, Surinam grass",[14],100
same,"Plant response rating, Large crabgrass",[15],100
same,"Plant response rating, Goosegrass",[16]; Rate 32 g/ha,80
same,"Plant response rating, Goosegrass",[16]; Rate 64 g/ha,90
same,"Plant response rating, Goosegrass",[16]; Rate 125 g/ha,100
same,"Plant response rating, Goosegrass",[16]; Rate 250 g/ha,100
same,"Plant response rating, Com. ragweed",[17]; Rate 125 g/ha,100
same,"Plant response rating, Com. ragweed",[17]; Rate 250 g/ha,100
